Source: US20200017495A1, “NOVEL HETEROCYCLIC COMPOUNDS AND THEIR USE IN PREVENTING OR TREATING BACTERIAL INFECTIONS” (priority 2017, published 2020)
Read-outs that look alike come from different tables or passages of the source.

How the values were obtained:
[1] = system: Klebsiella pneumoniae (KPN) isolates; test: MIC of compounds alone and combined with antibacterials, broth microdilution (CLSI); assay type: cell-based; conditions: Klebsiella pneumoniae, read-out: MIC
Outline: (§1)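 Antibacterial MICs in combination were determined at every compound concentration tested, alongside compound MICs alone. Bacteria grew in cation-adjusted Mueller-Hinton broth starting from 5.10^5 CFU/mL, incubated at 35° C for 16-20 h, and endpoints were the lowest concentrations with no visible growth.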

[2] = system: Escherichia coli (ECO) isolates; test: as above; assay type: cell-based; conditions: Escherichia coli, read-out: MIC
Outline: as §1

## O=C1N2CC(n3cccn3)=CC(C2)N1OC(F)(F)C(=O)[O-].[Li+] (stereo not drawn) [AF3]
[1]; BAA1898, KPN BAA-1898, alone
  MIC: 16 µg/mL
[1]; KPN 6299, alone
  MIC: 16 µg/mL
[1]; KPN 110376, alone
  MIC: 16 µg/mL
[1]; KPN 121206, alone
  MIC: 16 µg/mL
[1]; KPN 131119, alone
  MIC: 8 µg/mL
[1]; KPN 140513, alone
  MIC: 32 µg/mL
[1]; KPN 160143, alone
  MIC: 4 µg/mL
[1]; KPN 190128, alone
  MIC: 32 µg/mL
[1]; KPN 190270, alone
  MIC: 32 µg/mL
[1]; KPN 190425, alone
  MIC: 16 µg/mL
[1]; KPN 190551, alone
  MIC: 4 µg/mL
[1]; KPN 200047, alone
  MIC: 4 µg/mL
[1]; KPN 200327, alone
  MIC: 4 µg/mL
[1]; KPN 260251, alone
  MIC: 16 µg/mL
[1]; KPN 260252, alone
  MIC: > 32 µg/mL
[1]; KPN 260376, alone
  MIC: 4 µg/mL
[1]; KPN 270077, alone
  MIC: > 32 µg/mL
[1]; KPN 700603, alone
  MIC: 32 µg/mL
[1]; KPN ARA, alone
  MIC: 8 µg/mL
[1]; KPN LIB, alone
  MIC: 8 µg/mL
[1]; KPN UFR22_O, alone
  MIC: 16 µg/mL
[1]; KPN UFR23, alone
  MIC: 8 µg/mL
[1]; KPN UFR24, alone
  MIC: 32 µg/mL
[1]; KPN UFR25, alone
  MIC: 8 µg/mL
[1]; KPN UFR27, alone
  MIC: 16 µg/mL
[1]; KPN UFR28, alone
  MIC: 16 µg/mL
[1]; KPN UFR33, alone
  MIC: > 32 µg/mL
[1]; KPN UFR42, alone
  MIC: 16 µg/mL
[1]; KPN UFR43, alone
  MIC: 8 µg/mL
[1]; KPN UFR46, alone
  MIC: 32 µg/mL
[1]; KPN UFR53, alone
  MIC: 8 µg/mL
[1]; KPN UFR65, alone
  MIC: 32 µg/mL
[1]; KPN UFR66, alone
  MIC: 32 µg/mL
[1]; KPN UFR67, alone
  MIC: 32 µg/mL
[1]; KPN UFR68, alone
  MIC: 16 µg/mL
[1]; KPN UFR76, alone
  MIC: > 32 µg/mL
[1]; KPN UFR77, alone
  MIC: 8 µg/mL
[1]; KPN UFR78, alone
  MIC: > 32 µg/mL
[1]; KPN UFR79, alone
  MIC: 32 µg/mL
[1]; KPN UFR80, alone
  MIC: 32 µg/mL
[1]; KPN UFR81, alone
  MIC: 16 µg/mL
[1]; KPN UFR215, alone
  MIC: 32 µg/mL
[1]; KPN UFR216, alone
  MIC: 4 µg/mL
[1]; KPN UFR217, alone
  MIC: 8 µg/mL
[1]; KPN UFR218, alone
  MIC: 4 µg/mL
[1]; KPN UFR219, alone
  MIC: 16 µg/mL
[1]; KPN UFR220, alone
  MIC: 4 µg/mL
[1]; KPN UFR221, alone
  MIC: 4 µg/mL
[1]; KPN UFR222, alone
  MIC: 8 µg/mL
[1]; KPN UFR227O, alone
  MIC: > 32 µg/mL
[1]; strain KPN 140347, compound alone
  MIC: 32 µg/mL
[1]; strain KPN UFR162, compound alone
  MIC: 16 µg/mL
[1]; strain KPN UFR163, compound alone
  MIC: 16 µg/mL
[1]; strain KPN UFR164, compound alone
  MIC: 16 µg/mL
[1]; strain KPN UFR165, compound alone
  MIC: 16 µg/mL
[1]; strain KPN UFR166, compound alone
  MIC: > 32 µg/mL
[1]; strain KPN UFR167, compound alone
  MIC: > 32 µg/mL
[1]; strain KPN UFR168, compound alone
  MIC: 16 µg/mL
[1]; strain KPN UFR169, compound alone
  MIC: > 32 µg/mL
[1]; strain KPN UFR170, compound alone
  MIC: 16 µg/mL
[1]; strain KPN UFR171, compound alone
  MIC: 8 µg/mL
[1]; strain KPN UFR172, compound alone
  MIC: 8 µg/mL
[1]; strain KPN UFR229O, compound alone
  MIC: 32 µg/mL
[2]; ECO 4133, alone
  MIC: 4 µg/mL
[2]; ECO 5302, alone
  MIC: 4 µg/mL
[2]; ECO 131119, alone
  MIC: 4 µg/mL
[2]; ECO 180070, alone
  MIC: 4 µg/mL
[2]; ECO 190314, alone
  MIC: 8 µg/mL
[2]; ECO 190317, alone
  MIC: 4 µg/mL
[2]; ECO 190457, alone
  MIC: 4 µg/mL
[2]; ECO 190549, alone
  MIC: 4 µg/mL
[2]; ECO 200159, alone
  MIC: 4 µg/mL
[2]; ECO 200259, alone
  MIC: 4 µg/mL
[2]; ECO 200344, alone
  MIC: 4 µg/mL
[2]; ECO 260096, alone
  MIC: 16 µg/mL
[2]; ECO 260304, alone
  MIC: 8 µg/mL
[2]; ECO 260508, alone
  MIC: 8 µg/mL
[2]; ECO (strain number on grid row 356, not shown), alone
  MIC: 8 µg/mL
[2]; ECO RGN238, alone
  MIC: 8 µg/mL
[2]; ECO UFR15, alone
  MIC: 8 µg/mL
[2]; ECO UFR16, alone
  MIC: 8 µg/mL
[2]; ECO UFR17, alone
  MIC: > 32 µg/mL
[2]; ECO UFR18, alone
  MIC: 8 µg/mL
[2]; ECO UFR19, alone
  MIC: 8 µg/mL
[2]; ECO UFR32, alone
  MIC: 8 µg/mL
[2]; ECO UFR39, alone
  MIC: 8 µg/mL
[2]; ECO UFR41, alone
  MIC: 8 µg/mL
[2]; ECO UFR45, alone
  MIC: 4 µg/mL
[2]; ECO UFR52, alone
  MIC: 8 µg/mL
[2]; ECO UFR61O, alone
  MIC: 16 µg/mL
[2]; ECO UFR62, alone
  MIC: 8 µg/mL
[2]; ECO UFR74, alone
  MIC: 8 µg/mL
[2]; ECO UFR86, alone
  MIC: 16 µg/mL
[2]; ECO UFR174, alone
  MIC: 4 µg/mL
[2]; ECO UFR175, alone
  MIC: 16 µg/mL
[2]; ECO UFR176, alone
  MIC: 8 µg/mL
[2]; ECO UFR184, alone
  MIC: 8 µg/mL
[2]; ECO UFR208, alone
  MIC: 16 µg/mL
[2]; ECO UFR209, alone
  MIC: 8 µg/mL
[2]; ECO UFR210, alone
  MIC: 4 µg/mL
[2]; ECO UFR211, alone
  MIC: 8 µg/mL
[2]; ECO UFR212, alone
  MIC: 8 µg/mL
[2]; ECO URF20, alone
  MIC: 8 µg/mL
[2]; strain ECO UFR177, compound alone
  MIC: 8 µg/mL
[2]; strain ECO UFR178, compound alone
  MIC: 16 µg/mL
[2]; strain ECO UFR179, compound alone
  MIC: 16 µg/mL
[2]; strain ECO UFR180, compound alone
  MIC: 8 µg/mL
[2]; strain ECO UFR181, compound alone
  MIC: 16 µg/mL
[2]; strain ECO UFR182, compound alone
  MIC: 16 µg/mL
[2]; strain ECO UFR183, compound alone
  MIC: 32 µg/mL
[2]; strain ECO UFR186, compound alone
  MIC: 8 µg/mL
[2]; strain ECO UFR187, compound alone
  MIC: 32 µg/mL
[2]; strain ECO UFR189, compound alone
  MIC: 8 µg/mL
[2]; strain ECO UFR190, compound alone
  MIC: 8 µg/mL
[2]; strain ECO UFR191, compound alone
  MIC: 8 µg/mL
[2]; strain ECO UFR204, compound alone
  MIC: 8 µg/mL
[2]; strain ECO UFR205, compound alone
  MIC: 8 µg/mL
[2]; strain ECO UFR206, compound alone
  MIC: 16 µg/mL
[2]; strain ECO UFR252GO, compound alone
  MIC: 8 µg/mL
[2]; strain ECO UFR255, compound alone
  MIC: 4 µg/mL
